Data published in patent US10870678B2, “Chiral peptides” (ARCUATE THERAPEUTICS, INC., priority 2016, dated 2020).
Read-outs that look alike come from different tables or passages of the source.

Test system: HepG2 human liver cancer cell line
Assay: Functional Mitochondrial Toxicity Assay, XFe96 Seahorse (HepG2)
Format: cell-based
Details: HepG2
Procedure: The present Examples interrogate the two major energy producing pathways in the cell, mitochondrial respiration and glycolysis. HepG2 human liver cancer cell lines were dosed with test compounds and in real time the extracellular oxygen levels and pH were measured using the XFe96 flux analyser (Seahorse Biosciences). XFe Technology uses solid-state sensors to simultaneously measure both oxygen consumption rate (OCR) and extracellular acidification rate (ECAR) to determine effects on oxidative phosphorylation (OXPHOS) and glycolysis simultaneously. The cells were then subjected to sequential exposure to various inhibitors of mitochondrial functional to assess cellular metabolism.
A positive mitochondrial active compound is determined when there is a change in OCR or ECAR in the absence of cytotoxicity. Cytotoxicity was determined when both oxidative phosphorylation (OCR) and glycolysis (ECAR) were inhibited.
OCR is a measurement of oxygen content in extracellular media. Changes in OCR indicate effects on mitochondrial function, and can be bi-directional. A decrease is due to an inhibition of mitochondrial respiration, whilst an increase may indicate an uncoupler, in which respiration is not linked to energy production.
ECAR is the measurement of extracellular proton concentration (pH). An increase in signal means an increase in rate in number of pH ions (Thus decreasing pH value), and seen as an increase in glycolysis. Expressed as a fraction of basal control (rate prior to addition of compound).
Reverse capacity is the measured ability of cells to respond to an increase in energy demand, a reduction indicates mitochondrial dysfunction.
The Mitochondrial Stress Test is a series of sequential additions of compounds to the cells to assess a bioenergetics profile, and effects of test compounds on parameters such as proton leak and research capacity. This was used to assist in understanding potential mechanisms of mitochondrial toxicity. For example, it involves the addition of the follow compounds in this order:
Oligomycin is a known inhibitor of ATP synthase, and prevents the formation of ATP. This provides a measurement of the amount of oxygen consumption related to ATP production and ATP turnover. The addition of Oligomycin results in a decrease in OCR under normal conditions, and residual OCR is related to the natural proton leak.
Carbonyl cyanide 4-(trifluoromethoxy)phenylhydrazine (FCCP) is a protonphore, and is a known uncoupler of oxygen consumption from ATP production. This allows the maximum achievable transfer of electrons and oxygen consumption rate, and provides a measurement of reserve capacity.
Rotenone and antimycin A are known inhibitors of complex I and III of the electron transport chain, respectively. This inhibits electron transport completely, and any residual oxygen consumption is due to non-mitochondrial activity via oxygen requiring enzymes.

[1] = read-out: Reserve Capacity AC50

In the case of “(D-Lys)(L-Dmt)(L-Orn)(L-Phe)-NH2 [Peptide I-7]”, the “Potential Mechanism” value was “No effect”, the AC50 (read-out: ECAR AC50) was > 100 µM and the AC50 (read-out: OCR AC50) was > 100 µM. For the same substance, the AC50 [1] was > 100 µM.

“(L-Phe)(L-Orn)(L-Leu)(D-Arg)-NH2 [Peptide I-30]” was tested, and the “Potential Mechanism” value was “No effect”, the AC50 (read-out: ECAR AC50) was > 100 µM and the AC50 (read-out: OCR AC50) was > 100 µM. For the same substance, the AC50 [1] was > 100 µM.

For “(D-Phe)(D-Orn)(D-Tyr)(L-Arg)-NH2 [Peptide I-16]”, the “Potential Mechanism” value was “Other”, the “Reserve Capacity MEC” value was 84.5 µM and the “Reserve Capacity ↑↓” value was “↑”. For the same substance, the AC50 (read-out: ECAR AC50) was > 100 µM, the AC50 (read-out: OCR AC50) was > 100 µM and the AC50 [1] was > 100 µM.

“(D-Arg)(L-Dmt)(L-Orn)(L-Phe)-NH2 [Peptide I-2]” was tested, and the “Potential Mechanism” value was “No effect”, the AC50 (read-out: ECAR AC50) was > 100 µM and the AC50 (read-out: OCR AC50) was > 100 µM. The AC50 [1] was > 100 µM.

With “(D-Arg)(L-Dmt)(L-Lys)(L-Tyr)-NH2 [Peptide I-9]” the “Potential Mechanism” value was “No effect”, the AC50 (read-out: ECAR AC50) was > 100 µM and the AC50 (read-out: OCR AC50) was > 100 µM. For the same substance, the AC50 [1] was > 100 µM.

In the case of “(D-Lys)(L-Tyr)(L-Orn)(L-Phe)-NH2 [Peptide I-8]”, the “Potential Mechanism” value was “Other”, the “Reserve Capacity MEC” value was 79.7 µM and the “Reserve Capacity ↑↓” value was “↑”. For the same substance, the AC50 (read-out: ECAR AC50) was > 100 µM, the AC50 (read-out: OCR AC50) was > 100 µM and the AC50 [1] was > 100 µM.

For “(D-Lys)(L-Leu)(L-Orn)(L-Leu)-NH2 [Peptide I-25]”, the “Potential Mechanism” value was “No effect”, the AC50 (read-out: ECAR AC50) was > 100 µM and the AC50 (read-out: OCR AC50) was > 100 µM. The AC50 [1] was > 100 µM.

In the case of “(D-Arg)(L-Phe)(L-Lys)(L-Phe)-NH2 [Peptide I-22]”, the “Potential Mechanism” value was “No effect”, the “Reserve Capacity MEC” value was 100 µM and the “Reserve Capacity ↑↓” value was “↑”. The AC50 (read-out: ECAR AC50) was > 100 µM, the AC50 (read-out: OCR AC50) was > 100 µM and the AC50 [1] was > 100 µM.

In the case of “(D-Phe)(D-Orn)(D-Phe)(L-Orn)-NH2 [Peptide I-38]”, the “Potential Mechanism” value was “No effect”, the AC50 (read-out: ECAR AC50) was > 100 µM and the AC50 (read-out: OCR AC50) was > 100 µM. The AC50 [1] was > 100 µM.

For “(D-Arg)(L-Leu)(L-Lys)(L-Phe)-NH2 [Peptide I-21]”, the “Potential Mechanism” value was “Other”, the “Reserve Capacity MEC” value was 62.5 µM and the “Reserve Capacity ↑↓” value was “↑”. The AC50 (read-out: ECAR AC50) was > 100 µM, the AC50 (read-out: OCR AC50) was > 100 µM and the AC50 [1] was > 100 µM.

With “(D-Orn)(L-Tyr)(L-Orn)(L-Phe)-NH2 [Peptide I-5]” the “Potential Mechanism” value was “Other”, the “Reserve Capacity MEC” value (listed as I-5 (1)) was 15.8 µM and the “Reserve Capacity ↑↓” value (listed as I-5 (1)) was “↑”. For the same substance, the AC50 (listed as I-5 (1), read-out: Reserve Capacity AC50) was > 100 µM, the “Reserve Capacity MEC” value (listed as I-5 (2)) was <0.1 µM and the “Reserve Capacity ↑↓” value (listed as I-5 (2)) was “↓”. For the same substance, the AC50 (listed as I-5 (2), read-out: Reserve Capacity AC50) was 0.954 µM, the AC50 (read-out: ECAR AC50) was > 100 µM and the AC50 (read-out: OCR AC50) was > 100 µM.

For “(D-Orn)(L-Leu)(L-Orn)(L-Leu)-NH2 [Peptide I-26]”, the “Potential Mechanism” value was “No effect”, the AC50 (read-out: ECAR AC50) was > 100 µM and the AC50 (read-out: OCR AC50) was > 100 µM. For the same substance, the AC50 [1] was > 100 µM.

In the case of “(L-Phe)(L-Orn)(L-Dmt)(D-Orn)-NH2 [Peptide I-13]”, the “Potential Mechanism” value was “Other”, the “Reserve Capacity MEC” value (listed as I-13 (1)) was 13.4 µM and the “Reserve Capacity ↑↓” value (listed as I-13 (1)) was “↑”. The AC50 (listed as I-13 (1), read-out: Reserve Capacity AC50) was 81.9 µM, the “Reserve Capacity MEC” value (listed as I-13 (2)) was 0.167 µM and the “Reserve Capacity ↑↓” value (listed as I-13 (2)) was “↓”. For the same substance, the AC50 (listed as I-13 (2), read-out: Reserve Capacity AC50) was 4.72 µM, the AC50 (read-out: ECAR AC50) was > 100 µM and the AC50 (read-out: OCR AC50) was > 100 µM.

For “(L-Phe)(L-Orn)(L-Phe)(D-Orn)-NH2 [Peptide I-33]”, the “Potential Mechanism” value was “No effect”, the AC50 (read-out: ECAR AC50) was > 100 µM and the AC50 (read-out: OCR AC50) was > 100 µM. The AC50 [1] was > 100 µM.

With “(L-Phe)(L-Orn)(L-Leu)(D-Orn)-NH2 [Peptide I-31]” the “Potential Mechanism” value was “No effect”, the AC50 (read-out: ECAR AC50) was > 100 µM and the AC50 (read-out: OCR AC50) was > 100 µM. The AC50 [1] was > 100 µM.

In the case of “(D-Lys)(L-Dmt)(L-Lys)(L-Phe)-NH2 [Peptide I-6]”, the “Potential Mechanism” value was “Other”, the “Reserve Capacity MEC” value was 50.3 µM and the “Reserve Capacity ↑↓” value was “↑”. For the same substance, the AC50 (read-out: ECAR AC50) was > 100 µM, the AC50 (read-out: OCR AC50) was > 100 µM and the AC50 [1] was > 100 µM.

With “(D-Orn)(L-Phe)(L-Orn)(L-Phe)-NH2 [Peptide I-27]” the “Potential Mechanism” value was “No effect”, the AC50 (read-out: ECAR AC50) was > 100 µM and the AC50 (read-out: OCR AC50) was > 100 µM. For the same substance, the AC50 [1] was > 100 µM.
